Where two headings read alike, the source gives them in different places.
Assays:
rat PRP = conditions: epinephrine; from Yun-Choi et al. 2001; read-out: IC50 platelet aggregation, epinephrine, racemic mixture; cited from earlier work
right auricle muscle = test: Heart rates (beats) of right auricle muscle excised from rats; parameters: species or system rat; conditions: vehicle control:100%
Description: (§1) Immediately after Sprague-Dawley rats (female or male) were anaesthetized with pentobarbital sodium (50 mg/kg, i.m.), the thorax was opened to excise the heart. The heart was submerged in Krebs solution, and left auricle muscle and right auricle muscle were then isolated. The left auricle muscle was placed in an organ bath for recording of contractile force, and applied with electrical field stimulation (voltage 10% higher than threshold voltage, 1 Hz frequency, 5 ms duration). In the case of right auricle muscle, which contracts spontaneously, the number of continuous beats was recorded. In this experiment, to measure contractile fore of the two auricle muscles, the organ bath was warmed to 37° C., and as a physiological solution, Krebs solution (119.8 mM NaCl, 4.6 mM KCl, 2.5 mM CaCl2, 1.2 mM MgCl2, 25 mM NaHCO3, 1.2 mM KH2PO4, 10 mM glucose, 1 mM EDTA, pH 7.4) was used. The Krebs solution (pH 7.4) was continuously saturated with a gas mixture of 95% O2 and 5% CO2. The auricle muscle was under a tension of 1 g, and Krebs solution was exchanged with fresh solution at intervals of 20 minutes while equilibrium was maintained during a recording period of 60 minutes.

left auricle muscle = test: Contractile force of left auricle muscle excised from rats; parameters: species or system rat; conditions: vehicle control:100%
Description: as §1

Sprague-Dawley rats = test: Acute toxicity in rat (LD50); type: in vivo; conditions: for LD50, Intraperitioneal injection: single intraperitoneal injection; for LD50, Intravenous injection: single intravenous injection
Description: (§2) Sprague-Dawley rats (six weeks) were used as test sample. Each group was comprised of two rats. […] The said emulsion was administered to two rats one times using intravenous injection and intraperitoneal injection.

[1] = test system: RAW 264.7 macrophage cells; test: Nitric oxide production in macrophage cell stimulated by LPS (Griess); type: cell-based; conditions: LPS 1 μg/ml
Description: RAW 264.7 macrophage cells were plated on 100 mm culture dishes at a density of 1-2×10^5 cells. Thereafter, the said macrophage cell was incubated in DMEM medium containing 10% fetal calf serum (heat-inactivated), 100 U/ml penicillin, and […] streptomycin in a CO2 incubator. The said macrophage cell was incubated therein confluently. The said incubated macrophage cells were transferred to serum-free DMEM medium, and further incubated therein for about 24 hours. Thereafter, macrophage cells were stimulated with LPS (1 μg/ml) for about 8 hours. (In this progress, experimental group was divided into two groups, group to which the compound was administered, and group to which the compound was not.) Then, nitrite quantification was achieved by performing calorimetric reaction for produced nitrite with Griess reagent and then measuring absorbance at 550 nm, while using NaNO2 as a standard.

LPS-injected rat [2] = conditions: from Kang et al. 1999; cited from earlier work
Rat Thoracic Aortas = test: Relaxation of rat thoracic aortas contracted by phenylephrine; conditions: 0.1 μM phenylephrine contraction
Description: Experimental group was divided into two groups, group containing endothelial cells of blood vessel and group not containing. Blood vessel of thoracic aortas was induced to contract by treatment with 0.1 μM of phenyleprine under tension of 1 g. Upon arriving at equilibrium, the enantiomers were added to an organ bath in a cumulative manner. Relaxation of thoracic aortas was recorded using a physiograph (Grass P7), calculating their response to the compounds with consideration of their added amount.

LPS-injected rat [3] = test: Serum/plasma level of nitrate/nitrite (NOx) in LPS-injected rat; type: in vivo; conditions: 10 mg/kg compound; LPS 20 mg/kg
Description: The rats were divided into three groups; (1) LPS-injected group (LPS was administered to abdominal cavity in an amount of 20 mg/kg), (2) enantiomer-injected group (LPS+the compounds represented by formula 3 to 8 was administered to abdominal cavity) or (3) saline solution-injected group. After administration of LPS, the rats were anaesthetized with pentobarbital. The blood was collected from rats by using heart punching. The plasma level of nitrite was measured by using the nitrate reductase derived from Aspergillus species, where the nitrate was reduced by enzyme. Particularly, the plasma was diluted with distilled water in a ratio of 1:10. Analysis buffering solution (KH2PO4 50 Mm, NADPH 0.6 Mm, FAD 5 Mm and nitrate reductase 10 U/ml, Ph 5.5) was added to the said plasma. Thereafter, the reaction was accomplished at 37° C. for 30 min. The plasma level of nitrite was measured by using sodium nitrite as a standard, and Griess solution. Standard curve to nitrite was calculated from the result derived from incubation in analysis buffering solution.

[4] = Acute toxicity in rat (LD50); type: in vivo; conditions: Sprague-Dawley, in vivo
Description: as §2

[5] = group containing endothelial cells, read-out: IC50 (E+), concentration showing relaxation response of 50%
[6] = group not containing endothelial cells, read-out: IC50 (E−), concentration showing relaxation response of 50%

SMILES: Oc1ccc(CC2NCCc3cc(O)c(O)cc32)cc1 (racemic) [Racemic mixture of formula 3 and formula 4, higenamine, reference compound]
- IC50 (rat PRP): 7.2 µM
- Heart Rates of Auricle Muscles (right auricle muscle; 1 × 10^−4 M): 200%
- Heart Rates of Auricle Muscles (right auricle muscle; 1 × 10^−5 M): 140%
- Heart Rates of Auricle Muscles (right auricle muscle; 1 × 10^−6 M): 115%
- Heart Rates of Auricle Muscles (right auricle muscle; 1 × 10^−7 M): 110%
- Heart Rates of Auricle Muscles (right auricle muscle; 3 × 10^−5 M): 160%
- Heart Rates of Auricle Muscles (right auricle muscle; 3 × 10^−6 M): 125%
- Heart Rates of Auricle Muscles (right auricle muscle; 3 × 10^−7 M): 110%
- Contractile Force of Auricle Muscles (left auricle muscle; 1 × 10^−4 M): 300%
- Contractile Force of Auricle Muscles (left auricle muscle; 1 × 10^−5 M): 260%
- Contractile Force of Auricle Muscles (left auricle muscle; 1 × 10^−6 M): 180%
- Contractile Force of Auricle Muscles (left auricle muscle; 1 × 10^−7 M): 115%
- Contractile Force of Auricle Muscles (left auricle muscle; 3 × 10^−5 M): 280%
- Contractile Force of Auricle Muscles (left auricle muscle; 3 × 10^−6 M): 240%
- Contractile Force of Auricle Muscles (left auricle muscle; 3 × 10^−7 M): 130%
- LD50, Intraperitioneal injection (Sprague-Dawley rats): 280 mg/kg
- LD50, Intravenous injection (Sprague-Dawley rats): 98 mg/kg
- NO production by LPS in macrophage cell ([1]; compound 10 μM): 21.3 µM
- NO production by LPS in macrophage cell ([1]; compound 50 μM): 14.3 µM
- NO production by LPS in macrophage cell ([1]; compound 100 μM): 15.2 µM
- survival, racemic mixture (LPS-injected rat [2]): 80%
- IC50 (Rat Thoracic Aortas; [5]): 9.81 µM
- IC50 (Rat Thoracic Aortas; [6]): 5.61 µM
- plasma level of NOx (LPS-injected rat [3]): 75 ± 4 µM

SMILES: Oc1cc2c(cc1O)C(Cc1ccc3ccccc3c1)NCC2 (racemic) [Racemic mixture of formula 7 and formula 8, 1-β-naphthylmethyl-6,7-dihydroxy-1,2,3,4-tetrahydroisoquinoline, reference compound]
- IC50 (rat PRP): 6.3 µM
- Heart Rates of Auricle Muscles (right auricle muscle; 1 × 10^−4 M): 140%
- Heart Rates of Auricle Muscles (right auricle muscle; 1 × 10^−5 M): 140%
- Heart Rates of Auricle Muscles (right auricle muscle; 1 × 10^−6 M): 125%
- Heart Rates of Auricle Muscles (right auricle muscle; 1 × 10^−7 M): 110%
- Heart Rates of Auricle Muscles (right auricle muscle; 3 × 10^−5 M): 140%
- Heart Rates of Auricle Muscles (right auricle muscle; 3 × 10^−6 M): 135%
- Heart Rates of Auricle Muscles (right auricle muscle; 3 × 10^−7 M): 120%
- Contractile Force of Auricle Muscles (left auricle muscle; 1 × 10^−4 M): 310%
- Contractile Force of Auricle Muscles (left auricle muscle; 1 × 10^−5 M): 250%
- Contractile Force of Auricle Muscles (left auricle muscle; 1 × 10^−6 M): 180%
- Contractile Force of Auricle Muscles (left auricle muscle; 1 × 10^−7 M): 110%
- Contractile Force of Auricle Muscles (left auricle muscle; 3 × 10^−5 M): 270%
- Contractile Force of Auricle Muscles (left auricle muscle; 3 × 10^−6 M): 220%
- Contractile Force of Auricle Muscles (left auricle muscle; 3 × 10^−7 M): 140%
- LD50 ([4]; ip, single intraperitoneal injection, read-out: LD50, Intraperitioneal injection): 220 mg/kg
- LD50 ([4]; single intravenous injection, read-out: LD50, Intravenous injection): 84 mg/kg
- NO production by LPS in macrophage cell ([1]; compound 10 μM): 45 µM
- NO production by LPS in macrophage cell ([1]; compound 50 μM): 40 µM
- NO production by LPS in macrophage cell ([1]; compound 100 μM): 39 µM
- IC50 (Rat Thoracic Aortas; Rattus norvegicus, Endothelial cell, group containing endothelial cells, read-out: IC50 (E+), concentration showing relaxation response of 50%): 8.75 µM
- IC50 (Rat Thoracic Aortas; Rattus norvegicus, Endothelial cell, group not containing endothelial cells, read-out: IC50 (E−), concentration showing relaxation response of 50%): 51.5 µM

SMILES: Oc1cc2c(cc1O)C(Cc1cccc3ccccc13)NCC2 (racemic) [Racemic mixture of formula 5 and formula 6, 1-α-naphthylmethyl-6,7-dihydroxy-1,2,3,4-tetrahydroisoquioline, reference compound]
- IC50 (rat PRP): 1.7 µM
- Heart Rates of Auricle Muscles (right auricle muscle; 1 × 10^−4 M): 135%
- Heart Rates of Auricle Muscles (right auricle muscle; 1 × 10^−5 M): 130%
- Heart Rates of Auricle Muscles (right auricle muscle; 1 × 10^−6 M): 120%
- Heart Rates of Auricle Muscles (right auricle muscle; 1 × 10^−7 M): 115%
- Heart Rates of Auricle Muscles (right auricle muscle; 3 × 10^−5 M): 130%
- Heart Rates of Auricle Muscles (right auricle muscle; 3 × 10^−6 M): 120%
- Heart Rates of Auricle Muscles (right auricle muscle; 3 × 10^−7 M): 115%
- Contractile Force of Auricle Muscles (left auricle muscle; 1 × 10^−4 M): 490%
- Contractile Force of Auricle Muscles (left auricle muscle; 1 × 10^−5 M): 400%
- Contractile Force of Auricle Muscles (left auricle muscle; 1 × 10^−6 M): 310%
- Contractile Force of Auricle Muscles (left auricle muscle; 1 × 10^−7 M): 140%
- Contractile Force of Auricle Muscles (left auricle muscle; 3 × 10^−5 M): 430%
- Contractile Force of Auricle Muscles (left auricle muscle; 3 × 10^−6 M): 360%
- Contractile Force of Auricle Muscles (left auricle muscle; 3 × 10^−7 M): 200%
- LD50, Intraperitioneal injection (Sprague-Dawley rats): 242 mg/kg
- LD50, Intravenous injection (Sprague-Dawley rats): 92 mg/kg
- NO production by LPS in macrophage cell ([1]; compound 10 μM): 31 µM
- NO production by LPS in macrophage cell ([1]; compound 50 μM): 28 µM
- NO production by LPS in macrophage cell ([1]; compound 100 μM): 26 µM
- survival, racemic mixture (LPS-injected rat [2]): 90%
- IC50 (Rat Thoracic Aortas; [5]): 0.105 µM
- IC50 (Rat Thoracic Aortas; [6]): 6.41 µM

— patent publication US20060058346A1, “Novel enantiomers of etrahydroisoquinoline derivatives and theirpharmaceutically acceptable salts, their preparations and pharmaceutical compositions” (priority 2002, published 2006)
